These results are taken from patent publication US20240139026A1, “Ophthalmic Lenses And Methods For Correcting, Slowing, Reducing, And/Or Controlling The Progression Of Myopia In Conjunction With Use Of Atropine Or Related Compounds” (Brien Holden Vision Institute Limited, priority 2020, published 2024).

Each structure is given as a SMILES string.

Data set [1] concerns myopic eye of an individual. Kind of data set: Spherical aberration of combined spectacle lens and eye system with Atropine-enlarged pupil. As to conditions: -2.00 D myope; pupillary diameter increase from about 3 mm to about 6 mm with use of Atropine. Format: in vivo. The source says: FIG. 1A illustrates a schematic plot of pupil diameters resulting from use of Atropine, a widely used muscarinic receptor antagonist and a pharmaceutical agent for myopia therapy. […] Considering FIG. 1A, it is observed that use of 0.01% Atropine which to date is the lowest concentration used for treatment of myopia in individuals, increases the photopic pupillary diameter by approximately 1 mm. Increasing the concentration to anywhere from 0.025% to 0.1% Atropine, increases the photopic pupil size from about 2 mm to about 3 mm. With the highest concentration of 0.5% Atropine, the increase in photopic pupil size was largest and at about 3 mm. An increase in pupil size increases aberrations of the eye. […] FIG. 1B illustrates the increase in higher order aberrations from 3rd to 6th order as determined by aberrometry for the myopic eye of an individual who has a distance refractive error of approximately −2.00 D. It is observed that there is a significant increase in aberrations with a larger pupil. An increase in the pupil size may result in a functional decrement in visual performance and one or more unwanted effects such as poorer visual performance, reduced contrast, blurred vision, increased glare and increased photophobia (sensitivity to light). […]

The subject of data set [2] is amplitude of accommodation. The conditions noted are these: concentrations greater than 0.1% Atropine; children aged 6-12 years; cited from earlier work.
Data set [3] concerns myopia progression. As to conditions: cited from earlier work.

Take `CN1[C@@H]2CC[C@H]1C[C@@H](OC(=O)C(CO)c1ccccc1)C2` (stereo partly shown) [Atropine]: in data set [1], the “effective increase of the spherical aberration of the combined spectacle lens and eye system” value is given as “about +0.50 D”. Further, the “reduction of amplitude of accommodation” value in data set [2] is recorded as “reduce the amplitude of accommodation by more than half”. For the same compound, the “concentration dependence of efficacy” value in data set [3] (Atropine eye drops 0.01% to 1.0%) was “the higher the concentration, the greater the efficacy”. The “efficacy in slowing myopia progression” value in data set [3] (used topically) is recorded as “demonstrated a level of efficacy in slowing myopia progression”.
